# ChEMBL document CHEMBL1131939, “The synthesis and P388 cytotoxicity of mycalazol 11 and related 5-acyl-2-hydroxymethylpyrroles” (1999)
# Tested on: P388
# Assay: In vitro cytotoxicity against the P388 murine leukemia cell line was determined
# Assay type: functional
# Conditions: Mus musculus, read-out: ID50 (the source's name)
row,Structure (SMILES),IC50
1,CCCCCCCCCCCCC(=O)c1ccc(CO)[nH]1,52 µg/mL
2,CCCCCCCCCCCC(=O)c1ccc(CO)[nH]1,21 µg/mL
3,CCCCCCCCCCCCCCCCCCC(=O)c1ccc(CO)[nH]1,24 µg/mL
4,CCCCCC(=O)c1ccc(CO)[nH]1,78 µg/mL
